Measurements: patent US9493487B2, “3-(1H-imidazo[4,5-C]pyridin-2-YL)-1H-pyrazolo[3,4-B]pyridine and therapeutic uses thereof” (Samumed, LLC, priority 2014, dated 2016)

Assays:
[1] = test system: Wnt activity (Sp5-Luc reporter, SW480 colon carcinoma cells); assay: Sp5-Luc Wnt reporter gene assay in SW480 colon carcinoma cells; type: cell-based; details: Homo sapiens; SW480 cells stably expressing Sp5-Luc reporter; 42 h incubation; BrightGlo luminescence normalized to DMSO
Text: The screening assay for Wnt activity is described as follows. Reporter cell lines can be generated by stably transducing cancer cell lines (e.g., colon cancer) or primary cells (e.g., IEC-6 intestinal cells) with a lentiviral construct that includes a Wnt-responsive promoter driving expression of the firefly luciferase gene.
SW480 colon carcinoma cells were transduced with a lentiviral vector expressing luciferase with a human Sp5 promoter consisting of a sequence of eight TCF/LEF binding sites. SW480 cells stably expressing the Sp5-Luc reporter gene and a hygromycin resistance gene were selected by treatment with 150 μg/ml of hygromycin for 7 days. These stably transduced SW480 cells were expanded in cell culture and used for all further screening activities. For Sp5-Luc reporter gene assays, the cells were plated at 10,000 cells/well in 96-well plates with growth medium containing 10% fetal calf serum and incubated overnight at 37° C. and 5% CO2. Each compound was dissolved in DMSO as a 10 mM stock in standard j-vials and used to prepare compound source plates in dose-response format with 3-fold serial dilutions and a 10 mM top concentration. Compound transfer from serially diluted source plates to assay plates containing the cells was accomplished using a pintool (Multimek 96, Beckman equipped with V&P Scientific FP1S50H pins) based liquid handling protocol. This protocol used a slotted pin to transfer 50 nl of compound from a source plate well to an assay plate well containing 50 μl of cells in growth medium. […] Control wells received 50 nl of DMSO treatment for normalization and calculating IC50 values. The treated cells were incubated at 37° C. and 5% CO2 for an additional forty-two hours. Following incubation, the growth medium was removed and 50 μl of BrightGlo luminescence reagent (Promega) was added to each well of the 96-well assay plates. The plates were placed on an orbital shaker for 5 min and then luminescence was quantified on the Victor3 (Perkin Elmer) plate reader. Readings were normalized to DMSO only treated cells, and normalized activities were utilized for IC50 calculations using the dose-response log (inhibitor) vs. response-variable slope (four parameters) nonlinear regression feature available in GraphPad Prism 5.0 or 6.0.

[2] = test system: primary human fibroblasts derived from IPF patients (LL29 cells); assay: Inhibition of TGF-β1-induced fibrosis (αSMA staining) in primary human fibroblasts from IPF patients; type: cell-based; details: Fibroblast, 96 h, TGF-β1 20 ng/mL, 4 days, 11-point dose-response 10 μM to 1.87 nM
Text: The above synthesized compounds were screened using primary human fibroblasts (derived from IPF patients) treated with TGF-β1 to determine their ability to inhibit the fibrotic process.
Primary human fibroblasts derived from IPF patients (LL29 cells) [^1Xiaoqiu Liu, et. al., “Fibrotic Lung Fibroblasts Show Blunted Inhibition by cAMP Due to Deficient cAMP Response Element-Binding Protein Phosphorylation”, Journal of Pharmacology and Experimental Therapeutics (2005), 315(2), 678-687; ^2Watts, K. L., et. al., “RhoA signaling modulates cyclin D1 expression in human lung fibroblasts; implications for idiopathic pulmonary fibrosis”, Respiratory Research (2006), 7(1), 88] were obtained from American Type Culture Collection (ATCC) and expanded in F12 medium supplemented with 15% Fetal Bovine Serum and Penicillin/Streptomycin.
Each compound was dissolved in DMSO as a 10 mM stock and used to prepare compound source plates. Serial dilution (1:2, 11-point dose-response curves from 10 μM to 1.87 nM) and compound transfer was performed using the ECHO 550 (Labcyte, Sunnyvale, Calif.) into 384-well clear bottom assay plates (Greiner Bio-One) with appropriate DMSO backfill for a final DMSO concentration of 0.1%. LL29 cells were plated at 1,500 cells/well in 80 μl/well F12 medium supplemented with 1% Fetal Bovine Serum. One hour after addition of the cells, TGF-β1 (Peprotech; 20 ng/mL) was added to the plates to induce fibrosis (ref. 1 and 2 above). Wells treated with TGF-β1 and containing DMSO were used as controls. Cells were incubated at 37° C. and 5% CO2 for 4 days. Following incubation for 4 days, SYTOX green nucleic acid stain (Life Technologies [Thermo Fisher Scientific]) was added to the wells at a final concentration of 1 uM and incubated at room temperature for 30 min. Cells were then fixed using 4% formaldehyde (Electron Microscopy Sciences), washed 3 times with PBS followed by blocking and permeabilization using 3% Bovine Serum Albumin (BSA; Sigma) and 0.3% Triton X-100 (Sigma) in PBS. Cells were then stained with antibody specific to α-smooth muscle actin (αSMA; Abcam) (ref 1 and 2 above) in 3% Bovine Serum Albumin (BSA; Sigma) and 0.3% Triton X-100 (Sigma) in PBS, and incubated overnight at 4° C. Cells were then washed 3 times with PBS, followed by incubation with Alexa Flor-647 conjugated secondary antibody (Life Technologies [Thermo Fisher Scientific]) and DAPI at room temperature for 1 hour. Cells were then washed 3 times with PBS and plates were sealed for imaging. αSMA staining was imaged by excitation at 630 nm and emission at 665 nm and quantified using the Compartmental Analysis program on the CellInsight CX5 (Thermo Scientific). Dead or apoptotic cells were excluded from analysis based on positive SYTOX green staining. % of total cells positive for αSMA were counted in each well and normalized to the average of 11 wells treated with TGF-β1 on the same plate using Dotmatics' Studies Software. The normalized averages (fold change over untreated) of 3 replicate wells for each compound concentration were used to create dose-responses curves and EC50 values were calculated using non-linear regression curve fit in the Dotmatics' Studies Software. The EC50 values are reported.

SMILES	IC50 [1]	EC50 [2]
c1ccc(CNCc2cncc(-c3cnc4[nH]nc(-c5nc6c(-c7cccnc7)nccc6[nH]5)c4c3)c2)cc1 [Compound 101, N-Benzyl-1-(5-(3-(4-(pyridin-3-yl)-1H-imidazo[4,5-c]pyridin-2-yl)-1H-pyrazolo[3,4-b]pyridin-5-yl)pyridin-3-yl)methanamine]	> 10000 nM	≥ 9990 nM
Cc1ccncc1-c1cnc2[nH]nc(-c3nc4c(-c5ccncc5)nccc4[nH]3)c2c1 [Compound 109, 5-(4-Methylpyridin-3-yl)-3-(4-(pyridin-4-yl)-1H-imidazo[4,5-c]pyridin-2-yl)-1H-pyrazolo[3,4-b]pyridine]	> 10000 nM	≥ 9990 nM
O=C(Cc1ccccc1)Nc1cncc(-c2cnc3[nH]nc(-c4nc5c(-c6ccncc6)nccc5[nH]4)c3c2)c1 [Compound 114, 2-Phenyl-N-(5-(3-(4-(pyridin-4-yl)-1H-imidazo[4,5-c]pyridin-2-yl)-1H-pyrazolo[3,4-b]pyridin-5-yl)pyridin-3-yl)acetamide]	> 10000 nM	≥ 9990 nM
CCCC(=O)Nc1cncc(-c2cnc3[nH]nc(-c4nc5c(-c6ccncc6)nccc5[nH]4)c3c2)c1 [Compound 121, N-(5-(3-(4-(Pyridin-4-yl)-1H-imidazo[4,5-c]pyridin-2-yl)-1H-pyrazolo[3,4-b]pyridin-5-yl)pyridin-3-yl)butyramide]	> 10000 nM	≥ 9990 nM
CCNCc1cncc(-c2cnc3[nH]nc(-c4nc5c(-c6ccccn6)nccc5[nH]4)c3c2)c1 [Compound 136, N-((5-(3-(4-(Pyridin-2-yl)-1H-imidazo[4,5-c]pyridin-2-yl)-1H-pyrazolo[3,4-b]pyridin-5-yl)pyridin-3-yl)methyl)ethanamine]	> 10000 nM	9 nM
O=C(Nc1cncc(-c2cnc3[nH]nc(-c4nc5c(-c6ccccn6)nccc5[nH]4)c3c2)c1)c1ccccc1 [Compound 141, N-(5-(3-(4-(Pyridin-2-yl)-1H-imidazo[4,5-c]pyridin-2-yl)-1H-pyrazolo[3,4-b]pyridin-5-yl)pyridin-3-yl)benzamide]	> 10000 nM	≥ 9990 nM
CCCCC(=O)Nc1cncc(-c2cnc3[nH]nc(-c4nc5c(-c6ccccn6)nccc5[nH]4)c3c2)c1 [Compound 148, N-(5-(3-(4-(Pyridin-2-yl)-1H-imidazo[4,5-c]pyridin-2-yl)-1H-pyrazolo[3,4-b]pyridin-5-yl)pyridin-3-yl)pentanamide]	6160 nM	9 nM
CCC(=O)Nc1cncc(-c2cnc3[nH]nc(-c4nc5c(N6CCCCC6)nccc5[nH]4)c3c2)c1 [Compound 157, N-(5-(3-(4-(Piperidin-1-yl)-1H-imidazo[4,5-c]pyridin-2-yl)-1H-pyrazolo[3,4-b]pyridin-5-yl)pyridin-3-yl)propionamide]	148 nM	432 nM
CN(C)c1cncc(-c2cnc3[nH]nc(-c4nc5c(N6CCCCC6)nccc5[nH]4)c3c2)c1 [Compound 163, N,N-Dimethyl-5-(3-(4-(piperidin-1-yl)-1H-imidazo[4,5-c]pyridin-2-yl)-1H-pyrazolo[3,4-b]pyridin-5-yl)pyridin-3-amine]	777 nM	9 nM
CN(C)Cc1cncc(-c2cnc3[nH]nc(-c4nc5c(N6CCCCC6)nccc5[nH]4)c3c2)c1 [Compound 169, N,N-Dimethyl-1-(5-(3-(4-(piperidin-1-yl)-1H-imidazo[4,5-c]pyridin-2-yl)-1H-pyrazolo[3,4-b]pyridin-5-yl)pyridin-3-yl)methanamine]	2270 nM	888 nM
O=C(Nc1cncc(-c2cnc3[nH]nc(-c4nc5c(N6CCCCC6)nccc5[nH]4)c3c2)c1)C1CC1 [Compound 175, N-(5-(3-(4-(Piperidin-1-yl)-1H-imidazo[4,5-c]pyridin-2-yl)-1H-pyrazolo[3,4-b]pyridin-5-yl)pyridin-3-yl)cyclopropanecarboxamide]	413 nM	859 nM
